Results as given in patent US7271165B2, “Rifamycin analogs and uses thereof” (priority 2003, dated 2007).
≈ marks a conversion by molar mass, not a printed value.

Legend:
[1] = tested on: H. flu; assay type: cell-based, H. influenza; conditions: H. flu
[2] = tested on: E coli; assay: MIC assay, E coli; assay type: cell-based
[3] = tested on: S. aureus; assay: MIC assay, S. aureus; assay type: cell-based, Staphylococcus aureus
[4] = tested on: E. faecalis; assay: MIC assay, E. faecalis; assay type: cell-based, Enterococcus faecalis
[5] = tested on: S. pneumo.; assay: MIC assay, S. pneumo.; assay type: cell-based, Streptococcus pneumoniae

Compound	MIC (μg/mL) H. flu [1] [µg/mL]	MIC (μg/mL) E coli [2] [µg/mL]	MIC (μg/mL) S. aureus [3] [µg/mL]	MIC (μg/mL) E. faecalis [4] [µg/mL]	MIC (μg/mL) S. pneumo. [5] [µg/mL]
CO[C@H]1/C=C/O[C@@]2(C)Oc3c(C)c(O)c4c(=O)c(c5oc6cc(N7CCC(N(C)C)CC7)cc(O)c6nc-5c4c3C2=O)NC(=O)/C(C)=C\C=C\[C@H](C)[C@H](O)[C@@H](C)[C@@H](O)[C@@H](C)[C@H](O)[C@@H]1C [Compound 18, 25-O-deacetyl-3′-hydroxy-5′-(4-N,N dimethylamino-1-piperidinyl)benzoxazinorifamycin]	0.5 (≈ 565 nM)	4 (≈ 4520 nM)	0.004 (≈ 4.52 nM)	0.12 (≈ 136 nM)	0.00012 (≈ 0.136 nM)
CCOC(=O)NC1CCN(c2ccc3nc4c5c6c7c(C)c(O)c5c(=O)c(c-4n(C)c3c2)NC(=O)/C(C)=C\C=C\[C@H](C)[C@H](O)[C@@H](C)[C@@H](O)[C@@H](C)[C@H](OC(C)=O)[C@H](C)[C@@H](OC)/C=C/O[C@@](C)(O7)C6=O)CC1 [Compound 19]	0.25 (≈ 258 nM)	4 (≈ 4130 nM)	0.004 (≈ 4.13 nM)	0.06 (≈ 62 nM)	0.001 (≈ 1.03 nM)
COC1C=COC2(C)Oc3c(C)c(O)c4c(=O)c(c5oc6cc(N7CC8C(N)C8C7)cc(O)c6nc-5c4c3C2=O)NC(=O)C(C)=CC=CC(C)C(O)C(C)C(O)C(C)C(O)C1C [Compound 20, 25-O-deacetyl-3′-hydroxy-5′-[6-amino-(1R,5S)-3-azabicyclo[3.1.0]hex-3-yl]benzoxazinorifamycin]	>8	>8	2 (≈ 2340 nM)	>8	1 (≈ 1170 nM)
CCOC(=O)NC1C2CN(c3cc(O)c4nc5c6c7c8c(C)c(O)c6c(=O)c(c-5oc4c3)NC(=O)C(C)=CC=CC(C)C(O)C(C)C(O)C(C)C(OC(C)=O)C(C)C(OC)C=COC(C)(O8)C7=O)CC21 (centres unmarked) [Compound 21]	0.5 (≈ 516 nM)	4 (≈ 4130 nM)	0.004 (≈ 4.13 nM)	0.12 (≈ 124 nM)	0.001 (≈ 1.03 nM)
CO[C@H]1/C=C/O[C@@]2(C)Oc3c(C)c(O)c4c(=O)c(c5oc6cc(N7CCC(NC(=O)OC(C)C)CC7)cc(O)c6nc-5c4c3C2=O)NC(=O)/C(C)=C\C=C\[C@H](C)[C@H](O)[C@@H](C)[C@@H](O)[C@@H](C)[C@H](OC(C)=O)[C@@H]1C [Compound 22]	2 (≈ 2030 nM)	>8	0.015 (≈ 15.2 nM)	4 (≈ 4060 nM)	0.00025 (≈ 0.254 nM)
CO[C@H]1/C=C/O[C@@]2(C)Oc3c(C)c(O)c4c(=O)c(c5oc6cc(N7CCC(NS(=O)(=O)C(F)(F)F)CC7)cc(O)c6nc-5c4c3C2=O)NC(=O)/C(C)=C\C=C\[C@H](C)[C@H](O)[C@@H](C)[C@@H](O)[C@@H](C)[C@H](OC(C)=O)[C@@H]1C [Compound 23]	2 (≈ 1940 nM)	>8	0.015 (≈ 14.5 nM)	4 (≈ 3880 nM)	0.00012 (≈ 0.116 nM)
CCCC(=O)NC1CCN(c2cc(O)c3nc4c5c6c7c(C)c(O)c5c(=O)c(c-4oc3c2)NC(=O)/C(C)=C\C=C\[C@H](C)[C@H](O)[C@@H](C)[C@@H](O)[C@@H](C)[C@H](OC(C)=O)[C@H](C)[C@@H](OC)/C=C/O[C@@](C)(O7)C6=O)CC1 [Compound 24, 3′-hydroxy-5′-[4-butanamide-1-piperidinyl]benzoxazinorifamycin]	2 (≈ 2060 nM)	>8	0.015 (≈ 15.5 nM)	2 (≈ 2060 nM)	0.001 (≈ 1.03 nM)
CO[C@H]1/C=C/O[C@@]2(C)Oc3c(C)c(O)c4c(=O)c(c5oc6cc(N7CCC(NS(C)(=O)=O)CC7)cc(O)c6nc-5c4c3C2=O)NC(=O)/C(C)=C\C=C\[C@H](C)[C@H](O)[C@@H](C)[C@@H](O)[C@@H](C)[C@H](OC(C)=O)[C@@H]1C [Compound 25]	2 (≈ 2050 nM)	>8	0.008 (≈ 8.19 nM)	2 (≈ 2050 nM)	0.001 (≈ 1.02 nM)
CCCNC(=O)NC1CCN(c2cc(O)c3nc4c5c6c7c(C)c(O)c5c(=O)c(c-4oc3c2)NC(=O)/C(C)=C\C=C\[C@H](C)[C@H](O)[C@@H](C)[C@@H](O)[C@@H](C)[C@H](O)[C@H](C)[C@@H](OC)/C=C/O[C@@](C)(O7)C6=O)CC1 [Compound 26, 25-O-deacetyl-3′-hydroxy-5′-[4-propyluryl-1-piperidinyl]benzoxazinorifamycin]	1 (≈ 1060 nM)	>8	0.008 (≈ 8.49 nM)	2 (≈ 2120 nM)	0.00012 (≈ 0.127 nM)
CO[C@H]1/C=C/O[C@@]2(C)Oc3c(C)c(O)c4c(=O)c(c5oc6cc(N7CCC(NS(C)(=O)=O)CC7)cc(O)c6nc-5c4c3C2=O)NC(=O)/C(C)=C\C=C\[C@H](C)[C@H](O)[C@@H](C)[C@@H](O)[C@@H](C)[C@H](O)[C@@H]1C [Compound 27]	0.12 (≈ 128 nM)	>8	0.015 (≈ 16 nM)	1 (≈ 1070 nM)	0.001 (≈ 1.07 nM)
CCCNC(=O)NC1CCN(c2cc(O)c3nc4c5c6c7c(C)c(O)c5c(=O)c(c-4oc3c2)NC(=O)/C(C)=C\C=C\[C@H](C)[C@H](O)[C@@H](C)[C@@H](O)[C@@H](C)[C@H](OC(C)=O)[C@H](C)[C@@H](OC)/C=C/O[C@@](C)(O7)C6=O)CC1 [Compound 28, 3′-hydroxy-5′-[4-propyluryl-1-piperidinyl]benzoxazinorifamycin]	0.25 (≈ 254 nM)	>8	0.03 (≈ 30.5 nM)	1 (≈ 1020 nM)	0.002 (≈ 2.03 nM)
CO[C@H]1/C=C/O[C@@]2(C)Oc3c(C)c(O)c4c(=O)c(c5oc6cc(N7CCC(NC(=O)OC(C)C)CC7)cc(O)c6nc-5c4c3C2=O)NC(=O)/C(C)=C\C=C\[C@H](C)[C@H](O)[C@@H](C)[C@@H](O)[C@@H](C)[C@H](O)[C@@H]1C [Compound 29]	1 (≈ 1060 nM)	>8	0.008 (≈ 8.48 nM)	2 (≈ 2120 nM)	0.00012 (≈ 0.127 nM)
CCOC(=O)NC1CCN(c2ccc3nc4c5c6c7c(C)c(O)c5c(=O)c(c-4n(C)c3c2)NC(=O)/C(C)=C\C=C\[C@H](C)[C@H](O)[C@@H](C)[C@@H](O)[C@@H](C)[C@H](O)[C@H](C)[C@@H](OC)/C=C/O[C@@](C)(O7)C6=O)CC1 [Compound 31]	0.25 (≈ 270 nM)	8 (≈ 8640 nM)	0.03 (≈ 32.4 nM)	0.25 (≈ 270 nM)	0.0005 (≈ 0.54 nM)
CO[C@H]1/C=C/O[C@@]2(C)Oc3c(C)c(O)c4c(=O)c(c5oc6cc(N7CCC(N)CC7)cc(O)c6nc-5c4c3C2=O)NC(=O)/C(C)=C\C=C\[C@H](C)[C@H](O)[C@@H](C)[C@@H](O)[C@@H](C)[C@H](OC(C)=O)[C@@H]1C [Compound 33, 3′-hydroxy-5′-[4-amino-1-piperidinyl]benzoxazinorifamycin]	1 (≈ 1110 nM)	>8	0.008 (≈ 8.9 nM)	1 (≈ 1110 nM)	0.00006 (≈ 0.0667 nM)
CCNC(=O)NC1CCN(c2cc(O)c3nc4c5c6c7c(C)c(O)c5c(=O)c(c-4oc3c2)NC(=O)/C(C)=C\C=C\[C@H](C)[C@H](O)[C@@H](C)[C@@H](O)[C@@H](C)[C@H](OC(C)=O)[C@H](C)[C@@H](OC)/C=C/O[C@@](C)(O7)C6=O)CC1 [Compound 34, 3′-hydroxy-5′-[4-ethyluryl-1-piperidinyl]benzoxazinorifamycin]	0.5 (≈ 515 nM)	8 (≈ 8250 nM)	0.03 (≈ 30.9 nM)	2 (≈ 2060 nM)	0.001 (≈ 1.03 nM)
CCCS(=O)(=O)NC1CCN(c2cc(O)c3nc4c5c6c7c(C)c(O)c5c(=O)c(c-4oc3c2)NC(=O)C(C)=CC=CC(C)C(O)C(C)C(O)C(C)C(OC(C)=O)C(C)C(OC)C=COC(C)(O7)C6=O)CC1 (centres unmarked) [Compound 35]	0.5 (≈ 497 nM)	8 (≈ 7960 nM)	0.015 (≈ 14.9 nM)	4 (≈ 3980 nM)	0.00025 (≈ 0.249 nM)
CCCC(=O)NC1CCN(c2cc(O)c3nc4c5c6c7c(C)c(O)c5c(=O)c(c-4oc3c2)NC(=O)C(C)=CC=CC(C)C(O)C(C)C(O)C(C)C(O)C(C)C(OC)C=COC(C)(O7)C6=O)CC1 (centres unmarked) [Compound 36, 25-O-deacetyl-3′-hydroxy-5′-[4-butanamide-1-piperidinyl]benzoxazinorifamycin]	0.25 (≈ 270 nM)	>8	0.004 (≈ 4.31 nM)	2 (≈ 2160 nM)	0.00003 (≈ 0.0324 nM)
CCNC(=O)NC1CCN(c2cc(O)c3nc4c5c6c7c(C)c(O)c5c(=O)c(c-4oc3c2)NC(=O)C(C)=CC=CC(C)C(O)C(C)C(O)C(C)C(O)C(C)C(OC)C=COC(C)(O7)C6=O)CC1 (centres unmarked) [Compound 37, 25-O-deacetyl-3′-hydroxy-5′-[4-ethyluryl-1-piperidinyl]benzoxazinorifamycin]	0.25 (≈ 269 nM)	>8	0.03 (≈ 32.3 nM)	2 (≈ 2160 nM)	0.004 (≈ 4.31 nM)
COC1C=COC2(C)Oc3c(C)c(O)c4c(=O)c(c5oc6cc(N7CCC(NS(=O)(=O)C(F)(F)F)CC7)cc(O)c6nc-5c4c3C2=O)NC(=O)C(C)=CC=CC(C)C(O)C(C)C(O)C(C)C(O)C1C (centres unmarked) [Compound 38]	0.25 (≈ 253 nM)	>8	0.12 (≈ 121 nM)	8 (≈ 8090 nM)	0.015 (≈ 15.2 nM)
